From BigSolDB 2.1

O=C(O)C[C@H](O)C(=O)O
solubility (mole fraction)
Settings | 278.15 K | 283.15 K | 288.15 K | 293.15 K | 298.15 K | 303.15 K | 308.15 K | 313.15 K | 318.15 K | 323.15 K
in acetone | 0.136 | 0.145 | 0.153 | 0.163 | 0.17 | 0.18 | 0.189 | 0.201 | 0.211 | 0.225
in acetonitrile | 0.045 | 0.0485 | 0.0523 | 0.0559 | 0.0608 | 0.0646 | 0.0684 | 0.0733 | 0.0783 | 0.0838
in ethanol | 0.11 | 0.126 | 0.145 | 0.166 | 0.187 | 0.207 | 0.232 | 0.256 | 0.283 | 0.314
in ethyl acetate | 0.0017 | 0.0029 | 0.005 | 0.0083 | 0.0134 | 0.0213 | 0.0333 | 0.0516 | 0.0763 | 0.113
in isopropanol | 0.117 | 0.136 | 0.157 | 0.178 | 0.203 | 0.228 | 0.256 | 0.285 | 0.314 | 0.345
in n-butanol | 0.0832 | 0.0948 | 0.109 | 0.124 | 0.14 | 0.159 | 0.18 | 0.201 | 0.225 | 0.25
in n-propanol | 0.0917 | 0.103 | 0.118 | 0.134 | 0.153 | 0.172 | 0.193 | 0.215 | 0.238 | 0.264
